{"source": "patent US20240327789A1", "about": "“HUMAN CEREBELLAR ORGANOIDS WITH BONA FIDE PURKINJE CELLS AND USES THEREOF” (University of Southern California, priority 2023, published 2024)", "test_system": "hCerOs", "experiment": "Two-photon calcium imaging of intact hCerOs with bath application of drugs", "assay_type": "cell-based, human", "data": [{"smiles": "NC1=N[C@H](O)[C@H]2[C@H]3O[C@]4(O)O[C@@H]([C@@H](O)[C@@]2(N1)[C@@H]4O)[C@]3(O)CO", "note": "[Tetrodotoxin]", "values": [{"measurement": "sensitivity of individual Ca2+ neuronal calcium signals", "value": "sensitive"}]}]}
